The source of these data is ChEMBL document CHEMBL1201862, “PubChem BioAssay data set” (2004).

The source made the active and inactive calls. Cut-off read from the data, not from the text of the source, for most assays here: actives have a measured IC50 and inactives only a lower limit.

The IC50 is the concentration that gives 50% inhibition.

For one experiment, the target named is T1, Caspase-3 (Homo sapiens, UniProt P42574).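 Note: Dose-response selectivity test against caspase-3 for candidate inhibitors of sentrin-specific proteases (SENPs).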
T1 sequence (P42574 whole entry): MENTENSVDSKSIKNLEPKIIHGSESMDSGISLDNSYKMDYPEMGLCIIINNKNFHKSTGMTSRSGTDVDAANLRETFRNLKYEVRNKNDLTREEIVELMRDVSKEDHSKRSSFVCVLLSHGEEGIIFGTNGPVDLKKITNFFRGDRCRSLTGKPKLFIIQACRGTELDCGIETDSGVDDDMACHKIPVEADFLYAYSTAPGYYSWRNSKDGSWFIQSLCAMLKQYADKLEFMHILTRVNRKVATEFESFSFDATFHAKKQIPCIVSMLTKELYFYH
Type of experiment: functional.

Experiment [1] addresses T2, Sentrin-specific protease 8 (Homo sapiens, UniProt Q96LD8).
T2 sequence (Q96LD8 whole entry): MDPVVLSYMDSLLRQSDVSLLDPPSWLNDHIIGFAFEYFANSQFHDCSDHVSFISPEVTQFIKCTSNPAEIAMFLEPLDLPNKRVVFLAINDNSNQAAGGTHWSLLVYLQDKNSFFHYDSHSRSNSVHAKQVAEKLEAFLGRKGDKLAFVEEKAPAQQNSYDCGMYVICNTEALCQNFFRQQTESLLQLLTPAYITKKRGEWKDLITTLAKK
Type of experiment: functional.

For experiment [2], the target named is T3, Sentrin-specific protease 6 (Homo sapiens, UniProt Q9GZR1).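 Note: Luminescence-based dose-response confirmatory assay of SENP6 inhibition, following up an ultra-high-throughput screen.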
T3 sequence (Q9GZR1 whole entry): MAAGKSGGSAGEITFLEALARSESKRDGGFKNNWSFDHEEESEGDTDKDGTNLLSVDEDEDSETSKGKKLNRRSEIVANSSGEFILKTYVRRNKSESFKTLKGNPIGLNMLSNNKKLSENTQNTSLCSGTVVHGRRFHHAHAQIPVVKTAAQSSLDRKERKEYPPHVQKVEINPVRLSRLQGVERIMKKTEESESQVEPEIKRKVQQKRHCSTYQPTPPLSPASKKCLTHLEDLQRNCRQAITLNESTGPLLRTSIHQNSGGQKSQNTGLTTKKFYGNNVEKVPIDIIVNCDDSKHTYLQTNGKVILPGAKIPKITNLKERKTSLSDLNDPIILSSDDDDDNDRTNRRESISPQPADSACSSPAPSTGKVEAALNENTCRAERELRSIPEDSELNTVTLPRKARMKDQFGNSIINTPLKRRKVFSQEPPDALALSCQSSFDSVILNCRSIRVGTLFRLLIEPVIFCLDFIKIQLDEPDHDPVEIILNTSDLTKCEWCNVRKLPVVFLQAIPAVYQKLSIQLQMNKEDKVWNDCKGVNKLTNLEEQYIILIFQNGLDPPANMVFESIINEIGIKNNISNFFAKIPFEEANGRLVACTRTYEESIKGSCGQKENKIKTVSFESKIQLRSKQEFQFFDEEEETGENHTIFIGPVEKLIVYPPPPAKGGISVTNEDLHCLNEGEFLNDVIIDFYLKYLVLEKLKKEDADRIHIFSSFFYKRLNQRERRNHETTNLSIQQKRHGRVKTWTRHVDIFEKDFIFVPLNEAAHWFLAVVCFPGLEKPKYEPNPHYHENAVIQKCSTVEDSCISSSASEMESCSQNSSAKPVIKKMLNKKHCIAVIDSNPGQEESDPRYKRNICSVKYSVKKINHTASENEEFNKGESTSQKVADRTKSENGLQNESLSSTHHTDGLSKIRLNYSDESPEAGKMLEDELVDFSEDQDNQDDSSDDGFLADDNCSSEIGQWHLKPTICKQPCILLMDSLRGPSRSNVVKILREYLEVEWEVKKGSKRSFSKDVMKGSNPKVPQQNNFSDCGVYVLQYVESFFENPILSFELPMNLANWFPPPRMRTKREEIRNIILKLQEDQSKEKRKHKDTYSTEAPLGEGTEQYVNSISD
The experiment is classed as functional.

The target in experiment [3] is T4, Sentrin-specific protease 7 (Homo sapiens, UniProt Q9BQF6).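 Note: Luminescence-based dose-response confirmation of ultra-high-throughput screening hits, measuring inhibition of SENP7.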
T4 sequence (Q9BQF6 whole entry): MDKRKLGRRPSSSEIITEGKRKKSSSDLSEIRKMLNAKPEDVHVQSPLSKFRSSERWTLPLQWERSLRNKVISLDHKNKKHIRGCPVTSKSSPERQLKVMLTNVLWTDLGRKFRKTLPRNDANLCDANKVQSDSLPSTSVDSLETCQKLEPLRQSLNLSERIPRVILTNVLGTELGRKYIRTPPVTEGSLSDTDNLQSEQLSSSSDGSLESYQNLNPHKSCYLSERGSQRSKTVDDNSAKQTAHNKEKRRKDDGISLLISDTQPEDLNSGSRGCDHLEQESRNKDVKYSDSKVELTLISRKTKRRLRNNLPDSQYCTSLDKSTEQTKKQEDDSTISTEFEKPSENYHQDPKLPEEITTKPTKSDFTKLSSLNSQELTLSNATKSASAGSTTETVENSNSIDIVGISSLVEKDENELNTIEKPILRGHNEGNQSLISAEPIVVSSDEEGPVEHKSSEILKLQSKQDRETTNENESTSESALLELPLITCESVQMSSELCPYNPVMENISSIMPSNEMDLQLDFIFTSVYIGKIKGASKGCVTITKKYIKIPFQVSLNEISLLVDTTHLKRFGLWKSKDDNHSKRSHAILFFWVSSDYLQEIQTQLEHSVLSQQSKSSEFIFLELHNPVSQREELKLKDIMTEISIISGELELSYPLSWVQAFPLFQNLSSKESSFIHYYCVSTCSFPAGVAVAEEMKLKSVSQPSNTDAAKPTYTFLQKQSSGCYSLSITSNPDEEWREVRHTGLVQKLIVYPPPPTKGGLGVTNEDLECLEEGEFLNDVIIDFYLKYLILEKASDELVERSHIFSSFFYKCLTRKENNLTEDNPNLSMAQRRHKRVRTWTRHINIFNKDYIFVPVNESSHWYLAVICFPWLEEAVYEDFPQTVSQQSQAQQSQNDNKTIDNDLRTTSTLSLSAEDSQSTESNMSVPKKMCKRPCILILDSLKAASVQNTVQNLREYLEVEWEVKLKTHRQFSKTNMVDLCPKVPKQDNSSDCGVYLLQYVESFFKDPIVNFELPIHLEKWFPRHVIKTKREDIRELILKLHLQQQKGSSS
The experiment is classed as functional.

The next experiment has as its system HEK293. Nature of the experiment: HEK293T cell viability loss, resazurin readout – resazurin fluorescence, cytotoxicity control for NF-kB activator project, SAR follow-up (AID 493251). The experiment is classed as functional, cell-based. The note with it: Homo sapiens. A general note: Alamar Blue is a resazurin reagent that responds to reducing activity.
Another experiment deals with T5, Hexokinase HKDC1 (Homo sapiens, UniProt Q2TB90).
T5 sequence (Q2TB90 whole entry): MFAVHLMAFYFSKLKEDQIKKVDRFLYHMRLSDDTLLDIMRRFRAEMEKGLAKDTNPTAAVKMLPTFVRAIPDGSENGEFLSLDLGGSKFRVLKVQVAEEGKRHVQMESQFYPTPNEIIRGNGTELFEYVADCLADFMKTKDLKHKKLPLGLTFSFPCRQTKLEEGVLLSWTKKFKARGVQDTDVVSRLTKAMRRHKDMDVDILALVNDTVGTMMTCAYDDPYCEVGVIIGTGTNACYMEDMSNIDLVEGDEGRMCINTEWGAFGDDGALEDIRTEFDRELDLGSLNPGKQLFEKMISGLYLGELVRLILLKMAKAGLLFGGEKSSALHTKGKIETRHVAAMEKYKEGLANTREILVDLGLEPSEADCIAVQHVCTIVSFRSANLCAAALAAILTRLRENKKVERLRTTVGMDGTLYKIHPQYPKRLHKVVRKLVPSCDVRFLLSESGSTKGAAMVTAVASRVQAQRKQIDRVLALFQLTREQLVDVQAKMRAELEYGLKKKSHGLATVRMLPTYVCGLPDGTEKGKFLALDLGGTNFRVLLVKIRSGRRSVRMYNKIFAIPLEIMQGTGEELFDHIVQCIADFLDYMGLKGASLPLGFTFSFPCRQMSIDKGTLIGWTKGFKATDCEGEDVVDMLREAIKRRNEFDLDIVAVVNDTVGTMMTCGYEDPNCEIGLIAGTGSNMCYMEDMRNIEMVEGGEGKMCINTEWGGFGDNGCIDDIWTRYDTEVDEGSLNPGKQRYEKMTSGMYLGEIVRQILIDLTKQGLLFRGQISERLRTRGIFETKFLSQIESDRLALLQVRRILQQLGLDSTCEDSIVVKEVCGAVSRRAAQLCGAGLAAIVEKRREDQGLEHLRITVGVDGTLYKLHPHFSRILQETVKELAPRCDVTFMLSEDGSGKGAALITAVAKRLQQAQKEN
Kind of experiment: SAR analysis of small molecule inhibitors of hexokinase domain containing I (HKDC1). [Related pubchem assays (depositor defined):AID493160, AID493190]. The experiment is classed as functional.

The next experiment addresses T6, Hexokinase-1 (Homo sapiens, UniProt P19367).
T6 sequence (P19367 whole entry): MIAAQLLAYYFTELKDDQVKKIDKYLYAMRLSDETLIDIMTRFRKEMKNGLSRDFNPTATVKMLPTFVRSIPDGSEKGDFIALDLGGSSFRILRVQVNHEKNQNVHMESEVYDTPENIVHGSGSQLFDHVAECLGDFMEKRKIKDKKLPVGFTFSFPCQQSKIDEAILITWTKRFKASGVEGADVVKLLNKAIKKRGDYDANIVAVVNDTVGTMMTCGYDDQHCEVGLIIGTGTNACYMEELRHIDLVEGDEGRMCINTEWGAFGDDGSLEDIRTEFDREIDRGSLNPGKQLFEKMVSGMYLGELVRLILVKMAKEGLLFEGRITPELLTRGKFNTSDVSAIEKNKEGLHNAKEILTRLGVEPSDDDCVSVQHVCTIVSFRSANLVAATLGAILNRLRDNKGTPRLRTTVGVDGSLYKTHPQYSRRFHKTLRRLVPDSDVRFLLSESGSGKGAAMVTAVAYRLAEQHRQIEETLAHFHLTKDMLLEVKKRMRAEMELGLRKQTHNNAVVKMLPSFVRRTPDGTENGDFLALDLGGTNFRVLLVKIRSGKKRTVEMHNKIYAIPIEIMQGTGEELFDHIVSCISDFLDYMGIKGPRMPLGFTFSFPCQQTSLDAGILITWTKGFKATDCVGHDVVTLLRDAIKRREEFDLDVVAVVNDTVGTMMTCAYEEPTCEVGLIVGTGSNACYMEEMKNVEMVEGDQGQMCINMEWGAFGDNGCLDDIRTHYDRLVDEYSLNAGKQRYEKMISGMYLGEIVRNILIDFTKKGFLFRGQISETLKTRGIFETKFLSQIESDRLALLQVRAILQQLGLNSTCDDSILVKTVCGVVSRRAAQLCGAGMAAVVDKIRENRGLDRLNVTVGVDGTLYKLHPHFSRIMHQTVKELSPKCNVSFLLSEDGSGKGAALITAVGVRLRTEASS
Kind of experiment: SAR analysis of small molecule inhibitors of hexokinase domain containing I (HKDC1) in the hexokinase 1 selectivity assay. [Related pubchem assays (depositor defined):AID493160, AID493190]. Type of experiment: functional.

Experiment [4] deals with T7, Apoptotic protease-activating factor 1 (Homo sapiens, UniProt O14727).
T7 sequence (O14727 whole entry): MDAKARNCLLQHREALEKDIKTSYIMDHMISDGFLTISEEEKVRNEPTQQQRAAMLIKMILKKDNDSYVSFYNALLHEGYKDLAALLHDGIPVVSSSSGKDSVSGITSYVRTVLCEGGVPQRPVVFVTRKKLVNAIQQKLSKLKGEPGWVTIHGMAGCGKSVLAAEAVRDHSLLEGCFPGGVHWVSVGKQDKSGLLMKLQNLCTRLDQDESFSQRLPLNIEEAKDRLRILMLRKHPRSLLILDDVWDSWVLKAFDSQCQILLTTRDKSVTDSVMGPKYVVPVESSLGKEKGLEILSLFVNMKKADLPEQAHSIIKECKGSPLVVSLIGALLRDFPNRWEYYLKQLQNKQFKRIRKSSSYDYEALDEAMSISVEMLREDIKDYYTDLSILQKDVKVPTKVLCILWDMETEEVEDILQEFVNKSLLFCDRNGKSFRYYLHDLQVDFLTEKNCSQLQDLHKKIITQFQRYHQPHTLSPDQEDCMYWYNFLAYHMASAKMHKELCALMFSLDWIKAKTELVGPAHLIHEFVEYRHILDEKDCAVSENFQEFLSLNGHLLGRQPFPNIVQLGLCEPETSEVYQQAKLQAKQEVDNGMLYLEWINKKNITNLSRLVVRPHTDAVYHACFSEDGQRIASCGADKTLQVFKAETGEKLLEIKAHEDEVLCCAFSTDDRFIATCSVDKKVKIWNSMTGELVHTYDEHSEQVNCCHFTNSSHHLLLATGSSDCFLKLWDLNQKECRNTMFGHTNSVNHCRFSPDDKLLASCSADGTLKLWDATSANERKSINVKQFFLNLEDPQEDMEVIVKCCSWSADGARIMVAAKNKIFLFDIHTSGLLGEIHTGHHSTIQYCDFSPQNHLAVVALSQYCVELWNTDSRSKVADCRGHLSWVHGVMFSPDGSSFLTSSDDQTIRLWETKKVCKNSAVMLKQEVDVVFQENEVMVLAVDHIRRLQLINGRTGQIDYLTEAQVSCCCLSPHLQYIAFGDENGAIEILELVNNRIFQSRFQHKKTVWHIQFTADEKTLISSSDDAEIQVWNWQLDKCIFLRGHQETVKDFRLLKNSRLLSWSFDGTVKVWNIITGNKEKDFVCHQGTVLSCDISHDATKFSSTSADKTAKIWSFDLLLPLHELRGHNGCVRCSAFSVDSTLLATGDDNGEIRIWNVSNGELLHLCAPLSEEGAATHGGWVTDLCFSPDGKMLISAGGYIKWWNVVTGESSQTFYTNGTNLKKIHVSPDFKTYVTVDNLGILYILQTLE
The experiment is classed as functional.

Consider `O=C1CC(/C=C/c2ccccc2)=Nc2ccccc2N1`, for which the half-inhibitory concentration (IC50) is 28.2 µM (active) at Caspase-3, 48.1 µM (active) in experiment [1], 33.2 µM (active) in experiment [2] and 6.55 µM (active) in experiment [3].

Consider `COc1ccc(-c2cn(CCC(=O)O)c(C)n2)cc1`, for which the IC50 was 40.7 µM (active) on Caspase-3, 4.56 µM (active) in experiment [1], 4.89 µM (active) in experiment [2] and 4.75 µM (active) in experiment [3].

For the compound `CCNC(=O)CCc1nc(-c2ccccc2)no1`, the IC50 with HEK293 is > 80 µM (inactive).

As for `Cc1cc2nnc(SCC(=O)Nc3cccc(S(=O)(=O)N4CCCCC4)c3)n2c2ccccc12`, the IC50 at Hexokinase HKDC1 and on Hexokinase-1 was > 80 µM (inactive) throughout.

Regarding `CCN(CC(=O)Nc1c(F)cccc1F)C(=O)Cc1ccsc1`, the IC50 in experiment [4] was > 100 µM (inactive).
